Experimental data: PubChem BioAssay AID2060502 (Molecular Pharmacology Branch, DTP, NCI, 2025)

Tested on: 885724-159-R-J1-PDC complex spheroid viability
Assay: Anticancer human tumor 885724-159-R-J1-PDC patient-derived pancreatic adenocarcinoma cell line growth inhibition [GQUAD]
Conditions: for IC50: curve of first compound; for viability, T/C: stronger effect = lower value
Method in brief: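 Viability of tumor cells grown as complex spheroids with endothelial and stromal cells, exposed to drug combinations. Top concentration at or near clinical Cmax (else 10 microM), diluted in half-log increments.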

[1] = second compound 0.0316 µM, first compound 0.0316 µM
[2] = second compound 0.0316 µM, first compound 0.1 µM
[3] = second compound 0.0316 µM, first compound 0.316 µM
[4] = second compound 0.0316 µM, first compound 1 µM
[5] = second compound 0.0316 µM, first compound 3.16 µM
[6] = second compound 0.0316 µM, first compound 10 µM
[7] = second compound 0.1 µM, first compound 0.0316 µM
[8] = second compound 0.1 µM, first compound 0.1 µM
[9] = second compound 0.1 µM, first compound 0.316 µM
[10] = second compound 0.1 µM, first compound 1 µM
[11] = second compound 0.1 µM, first compound 3.16 µM
[12] = second compound 0.1 µM, first compound 10 µM
[13] = second compound 0.316 µM, first compound 0.0316 µM
[14] = second compound 0.316 µM, first compound 0.1 µM
[15] = second compound 0.316 µM, first compound 0.316 µM
[16] = second compound 0.316 µM, first compound 1 µM
[17] = second compound 0.316 µM, first compound 3.16 µM
[18] = second compound 0.316 µM, first compound 10 µM
[19] = second compound 1 µM, first compound 0.0316 µM
[20] = second compound 1 µM, first compound 0.1 µM
[21] = second compound 1 µM, first compound 0.316 µM
[22] = second compound 1 µM, first compound 1 µM
[23] = second compound 1 µM, first compound 3.16 µM
[24] = second compound 1 µM, first compound 10 µM
[25] = second compound 3.16 µM, first compound 0.0316 µM
[26] = second compound 3.16 µM, first compound 0.1 µM
[27] = second compound 3.16 µM, first compound 0.316 µM
[28] = second compound 3.16 µM, first compound 1 µM
[29] = second compound 3.16 µM, first compound 3.16 µM
[30] = second compound 3.16 µM, first compound 10 µM
[31] = second compound 10 µM, first compound 0.0316 µM
[32] = second compound 10 µM, first compound 0.1 µM
[33] = second compound 10 µM, first compound 0.316 µM
[34] = second compound 10 µM, first compound 1 µM
[35] = second compound 10 µM, first compound 3.16 µM
[36] = second compound 10 µM, first compound 10 µM
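Also: spheroids exposed to agents for seven days before readout.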
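For viability, T/C in this document: percent of vehicle control viability where 100% = DMSO wells.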

CC(C)(O)C1CCC(Nc2ccc3ncc(-c4cccc(C(F)(F)F)c4)n3n2)CC1 (stereo unspecified) + Cc1[nH]c2ccc(F)cc2c1-c1nc2c3cccnc3c3ncccc3c2[nH]1
IC50 (second compound 0.0316 µM): 2.5 µM | IC50 (second compound 0.1 µM): 2.76 µM | IC50 (second compound 0.316 µM): 1.52 µM | IC50 (second compound 1 µM): 0.538 µM | IC50 (second compound 3.16 µM): < 0.0316 µM | IC50 (second compound 10 µM): 1.03 µM | viability, T/C [1]: 96.3% | viability, T/C [2]: 93.1% | viability, T/C [3]: 83.1% | viability, T/C [4]: 84.6% | viability, T/C [5]: 37.3% | viability, T/C [6]: 44.7% | viability, T/C [7]: 97.1% | viability, T/C [8]: 91.6% | viability, T/C [9]: 77.4% | viability, T/C [10]: 72.1% | viability, T/C [11]: 41.4% | viability, T/C [12]: 41.2% | viability, T/C [13]: 90.5% | viability, T/C [14]: 78.3% | viability, T/C [15]: 82.8% | viability, T/C [16]: 55.5% | viability, T/C [17]: 40.7% | viability, T/C [18]: 38.3% | viability, T/C [19]: 77% | viability, T/C [20]: 58.2% | viability, T/C [21]: 57.2% | viability, T/C [22]: 47.6% | viability, T/C [23]: 33.8% | viability, T/C [24]: 29.6% | viability, T/C [25]: 19.3% | viability, T/C [26]: 8.78% | viability, T/C [27]: 9.83% | viability, T/C [28]: 9.8% | viability, T/C [29]: 7.07% | viability, T/C [30]: 7.05% | viability, T/C [31]: 67.9% | viability, T/C [32]: 59% | viability, T/C [33]: 57.7% | viability, T/C [34]: 50.5% | viability, T/C [35]: 28.2% | viability, T/C [36]: 35.4%

CC1COCCN1c1cc(-c2ccnn2C)c2ccnc(-c3ccn[nH]3)c2n1 (stereo unspecified) + Cc1cnc(CNC(=O)c2c(=O)c3ccc(N4CCCN(C)CC4)nc3n3c2sc2ccccc23)cn1
IC50 (second compound 0.0316 µM): 2.66 µM | IC50 (second compound 0.1 µM): 5.19 µM | IC50 (second compound 0.316 µM): 4.11 µM | IC50 (second compound 1 µM): 1.59 µM | IC50 (second compound 3.16 µM): 0.609 µM | IC50 (second compound 10 µM): 0.728 µM | viability, T/C [1]: 86.4% | viability, T/C [2]: 81.4% | viability, T/C [3]: 76.3% | viability, T/C [4]: 54.9% | viability, T/C [5]: 52.8% | viability, T/C [6]: 38.5% | viability, T/C [7]: 99.4% | viability, T/C [8]: 81.1% | viability, T/C [9]: 82.4% | viability, T/C [10]: 73.5% | viability, T/C [11]: 54% | viability, T/C [12]: 41.3% | viability, T/C [13]: 94.2% | viability, T/C [14]: 90.3% | viability, T/C [15]: 72.9% | viability, T/C [16]: 62.2% | viability, T/C [17]: 55.2% | viability, T/C [18]: 41.3% | viability, T/C [19]: 82.4% | viability, T/C [20]: 74.1% | viability, T/C [21]: 69.3% | viability, T/C [22]: 57.2% | viability, T/C [23]: 39.8% | viability, T/C [24]: 33.9% | viability, T/C [25]: 64.8% | viability, T/C [26]: 65.7% | viability, T/C [27]: 58.4% | viability, T/C [28]: 42.7% | viability, T/C [29]: 37.3% | viability, T/C [30]: 30.9% | viability, T/C [31]: 65.1% | viability, T/C [32]: 61.6% | viability, T/C [33]: 57.3% | viability, T/C [34]: 48.2% | viability, T/C [35]: 30.6% | viability, T/C [36]: 25.2%

C=CCn1c(=O)c2cnc(Nc3ccc(N4CCN(C)CC4)cc3)nc2n1-c1cccc(C(C)(C)O)n1 + CN(C)c1ccc(Nc2c3ccc(NC(=O)CCN4CCCC4)cc3nc3cc(NC(=O)CCN4CCCC4)ccc23)cc1
IC50 (second compound 0.0316 µM): > 10 µM | IC50 (second compound 0.1 µM): > 10 µM | IC50 (second compound 0.316 µM): > 10 µM | IC50 (second compound 1 µM): 3.83 µM | IC50 (second compound 3.16 µM): 0.714 µM | IC50 (second compound 10 µM): 1.34 µM | viability, T/C [1]: 99% | viability, T/C [2]: 86.2% | viability, T/C [3]: 74.4% | viability, T/C [4]: 81.6% | viability, T/C [5]: 72.4% | viability, T/C [6]: 73% | viability, T/C [7]: 95.4% | viability, T/C [8]: 83.6% | viability, T/C [9]: 79.3% | viability, T/C [10]: 73.7% | viability, T/C [11]: 71.3% | viability, T/C [12]: 72.5% | viability, T/C [13]: 92% | viability, T/C [14]: 81.8% | viability, T/C [15]: 69.5% | viability, T/C [16]: 63.4% | viability, T/C [17]: 57.7% | viability, T/C [18]: 52.3% | viability, T/C [19]: 83.5% | viability, T/C [20]: 66.7% | viability, T/C [21]: 60.4% | viability, T/C [22]: 44.1% | viability, T/C [23]: 57.2% | viability, T/C [24]: 47.3% | viability, T/C [25]: 82.6% | viability, T/C [26]: 60.7% | viability, T/C [27]: 61.2% | viability, T/C [28]: 40.7% | viability, T/C [29]: 52.1% | viability, T/C [30]: 38.7% | viability, T/C [31]: 68.3% | viability, T/C [32]: 69.5% | viability, T/C [33]: 56.7% | viability, T/C [34]: 50.4% | viability, T/C [35]: 45.7% | viability, T/C [36]: 19.6%
